PMC5338303, “Unveiling the Metabolic Changes on Muscle Cell Metabolism Underlying p-Phenylenediamine Toxicity” (Frontiers in Molecular Biosciences, 2017)
“And” between values parts separate entries of the source, which are not always exact repeats. Identical values can stand only once. Like-named read-outs stand apart in the source and are kept apart here.

Experiments:
Wistar female rats [1] = assay: Blood packed cell volume, hemoglobin, organ weights and histology; type: in vivo, rat
Method: (§1) The animals were divided into groups of three rats at random. A control group receiving the vehicle and four groups receiving PPD at several concentrations 10, 20, 40, and 60 mg/kg at single dose were included (Figure 1). The compound was administered in a volume of 300 μl of 100% DMSO by gavage. Animals were evaluated based on general appearance, behavior and signs of morbidity using the Irwin test (Castagné et al., [2012]), immediately following administration, 30 min, 1, 2, 4, and 8 h after the administration (Figure 1). All of the animals were weighed just before the acclimatization period, before administration and 24, 48, and 72 h after administration. At the end of the observation period (24, 48, and 72 h after administration), all the animals were anesthetized and blood samples were collected from tail and retro orbital sinus and centrifuged at 2000 × g for 30 min at 4°C to recover the serum (Figure 1). The serum was frozen and stored at −20°C until determination of biochemical parameters such as urea, creatinin, Glucose, aspartate aminotransferase (AST), alanine aminotransferase (ALT) and creatine kinase (CK), lactate dehydrogenase (LDH), at 24, 48, and 72 h before sacrificed in a CO2 chamber and autopsied. All of the tissues were observed grossly. Ovaries, kidneys, liver, spleen, heart, and lung were weighed and the relative organ weights were calculated. Serum CK and LDH levels were measured.

C2C12 cells [2] = assay: Biochemical characterization: glucose and lactate concentrations in culture medium; type: cell-based, Mus musculus mouse; settings: PPD at IC50, 24 h
Method: Glucose and lactate concentrations were determined from culture medium at initial and end-time points by using Cobas Mira Plus chemistry analyzer (HORIBA ABX, Montpellier, France; Cisternas et al., [2016]).
(§2) Cells were cultured in DMEM (Biowithaker) °supplemented with 10% dialyzed heat-inactivated Fetal Bovine Serum (FBS), glucose (10 mM, 50% isotope enrichment [1,2-^13C2]-glucose), asparagine (20 mg/ml), penicillin (100 U/ml), and streptomycin (100 μg/ml). […] Initially each flask contained 10^6 cells and the incubation was carried out for 24 h. To separate medium and cell pellets, cells were centrifuged at the end of incubation (3000 × g, 5 min). Afterwards, pellet and medium were stored at −20°C for metabolite isolations.

Wistar female rats [3] = assay: Serum biochemical parameters (AST, ALT, CK, LDH); type: in vivo, rat; settings: 40 and 60 mg/kg
Method: as §1

[4] = system: central carbon metabolic pathways of C2C12 cells; assay: Mass isotopomer distribution analysis (MIDA) with [1,2-13C2]-glucose, GC/MS; type: cell-based, Mus musculus mouse
Method: To track and measure the substrate carbon flux through central carbon metabolic pathways of C2C12 cells when treated with PPD, mass isotopomer distribution analysis (MIDA), and metabolic modeling approaches were used.
as §2
• Glucose. A mixed DOWEX 50-DOWEX 1 ionic exchange column was used to corroborate that the original medium contained 50% of labeled glucose ([1,2-^13C2] D-glucose). First, 500 μl of medium and after 6 ml of milliQ water were passed through the column and were collected into a glass tube. Next, it was lyophilized for 12 h to eliminate the remaining liquid and the dried sample was stored. Finally, hydroxyl-amine in pyridine and acetic anhydride were used to derivatize glucose to its aldonitrile form. The ion cluster was set to m/z 328 (C1–C6, chemical ionization; Wamelink et al., [2008]). • Glycogen. Glycogen for biochemical and isotopomerics distribution determination was extracted as described in Burchert ([2007]), by direct digestion of sonicated extracts with amyloglucosidase. Measurement of glucose released from glycogen was done by using the isotopomer [U-13C6-1,2,3,4,5,6,6-D7]D-glucose (or [U-13C-D7]-glucose as shorter name) as recovery standard and internal standard quantification procedures. […] We monitored the ion cluster around the m/z 328 (C1–C6, chemical ionization; Wamelink et al., [2008]). • Lactate. […] Next, the m/z 328 was monitored (C1–C3, chemical ionization, Wamelink et al., [2008]). • Ribose from RNA. […]

C2C12 cells [5] = assay: Cell cycle analysis (FACS, propidium iodide); type: cell-based, Mus musculus mouse; settings: vs untreated cells
Method: Cell cycle was evaluated by measuring FACS (fluorescence-activated cell sorter) in an Epics XL flow cytometer at 488 nm (Coulter Corporation, Hialeah, FL, USA). This technique allows for the semiquantitation of DNA in each cell and permits to separate cells in G0 or G1 phase (one copy of DNA), G2 or M phase (after DNA duplication) and S phase (the amount of DNA per cell is in an intermediate state between the two previous conditions). For these measurements, C2C12 cells were cultivated in 6 well-plates (4 × 10^5 cells/well each) with 2 ml of culture medium. After 24 h of plated, PPD corresponding to IC50 and IC80 concentrations was added and cells were incubated for 24 h, in parallel, control C2C12 cells were cultured without PPD. All experiments were performed five times with two replicates for each experiment.

C2C12 cells [6] = assay: Cell viability assay (MTT); type: cell-based, Mus musculus mouse; settings: for IC50: read-out: IC50 (cell proliferation, MTT); for IC80: read-out: IC80 (cell proliferation, MTT)
Method: C2C12 cells from Mus musculus mouse were cultured in DMEM (Dulbecco's Modified Eagle's medium) with 10 mg/ml of streptomycin, 2 mM glutamine, 10,000 units/ml of penicillin and 10% heat-inactivated FCS, until subconfluence was reached. For biochemical characterization, C2C12 cells were cultured in DMEM, supplemented with 4 mM asparagine without glutamine, 10 mg/ml of streptomycin, 10,000 units/ml of penicillin and 10% heat-inactivated FCS.
The absorbance of MTT [3-(4,5-Dimethylthiazol-2-Yl)-2,5-Diphenyltetrazolium Bromide] dye staining of living cells was used to determine cell viability (Pachon et al., [2007]; Pachón et al., [2008]). Here, 3.5 × 10^3 C2C12 cells/well were cultured in 96 well-plates at different PPD concentrations (from 1 to 100 μg/ml). An ELISA plate reader (Tecan Sunrise MR20-301, TECAN, Austria) was used to determine the relative cell viability, the absorbance was determined at 550 nm. Cell survival rate relative to untreated cells after 24 h of treatment was used to estimate the concentrations that caused 50% (IC50) and 80% (IC80) of inhibition of C2C12 at that time.

Wistar female rats [7] = assay: Toxicity after oral administration; general appearance, behavior and signs of morbidity (Irwin test); type: in vivo, rat; parameters: key to Myoglobiunuria: ++ represents the presence of myoglobinuria; settings: for Ataxic Gait / Hypotonic Gait: animals affected/group; for Hipoactivity / Piloerection: duration
Method: The study was approved by the Ethics Committee on Animal Experimentation of University of Navarra. Wistar female rats, with a body weight of 160 g ± 20% (8 weeks old), were supplied by Harlan (Harlan Laboratories, Indianapolis, IN). The animals were housed in polycarbonate cages with stainless steel covers in a room under controlled temperature conditions (22 ± 3°C), controlled relative humidity (50 ± 20%) and light (12 h light–dark cycle). Air was exchanged 15 times/h sterile food supplied by Harlan (Harlan Laboratories, Indianapolis, IN) and controlled water was available ad libitum. The rats were housed in the study room for 5 days prior to the beginning of treatment in order to allow acclimatization to the environmental conditions. Finally, three rats were randomly assigned to each studied group corresponding to different PPD doses (10, 20, 40, and 60 mg/Kg) and control (DMSO).
as §1

C2C12 cells [8] = assay: Annexin V-Fluorescein isothiocyanate binding assay (apoptosis); type: cell-based, Mus musculus mouse
Excerpt: This technique permits to determine whether a cell is at early or late apoptosis or necrotic state. In early apoptosis, Phosphatidylserine (PS) is translocated to the outer membrane allowing PS-annexin V-Fluorescein Isothiocyanate (FITC) binding. In late apoptosis, as well as in necrotic processes, cell membranes lose their integrity allowing PI to access the nucleus and bind the DNA bases. Next, by using FACS analysis one can determine PI and annexin V-FITC staining accumulation to differentiate non-apoptotic cells (PI– and annexin V–) from early apoptotic (PI− and annexin V+) and necrotic or late apoptotic (PI+) cells (Cortés et al., [2012]). The same amount of C2C12 cells mentioned for cell cycle assay was treated with PPD as previously described. Cells were then collected and resuspended in binding buffer (10 mM Hepes/NaOH, pH7.4, 140 mM NaCl, 2.5 mM CaCl2). Annexin V-FITC conjugate (1 μg/ml) was added and incubated for 30 min at room temperature in the dark. Just before FACS analysis [Bender medSystems (Innogenetics) human Annexin V-FITC Kit cat No. BMS306FI], cells were stained with 1 mg/ml PI solution. In each experiment ~20 × 10^3 cells per condition were analyzed and the experiment was performed five times.

## Nc1ccc(N)cc1 [PPD, p-phenylenediamine]
Wistar female rats [1]; 48 and 72 h, any condition
  organs weight: No significant differences
Wistar female rats [1]; any condition (10-60 mg/kg)
  Blood packed cell volume: No significant differences
  hemoglobin levels: No significant differences
Wistar female rats [1]; vs controls
  Histological analysis of extracted organs: patterns similar to controls
C2C12 cells [2]
  glucose consumption (Δglucose): 2,42 ± 0,26 mM
  lactate production (Δlactate): 1,5 ± 0,3 mM
Wistar female rats [3]; 24, 48 and 72 h
  ALT in serum: increased
  AST in serum: increased
Wistar female rats [3]; 24 h
  CK in serum: increased
  LDH in serum: increased
[4]; 24 h, no significant differences between groups
  total glycogen reservoirs: 10,1 μg
[4]; PPD at IC50, 24 h, not significantly different from control
  Glycolitic rate = [Δlactate × m2lactate]/[Δglucose × m2glucose]: 28,8 ± 14%
[4]; RNA ribose, PPD at IC50, 24 h
  ox/non-ox ratio of pentose-phosphate pathway = m1 + m3 / (m2 + m3 + 2m4): 2,224 ± 0,189 and 2.224 ± 0.189
C2C12 cells [5]; PPD at IC50, 24 h
  decrease in the percentage of cells in G0/G1 phases: 19%
  increase in the population in S phase: 13%
C2C12 cells [5]; PPD at IC80, 24 h
  decrease in the percentage of cells in G0/G1 phases: 32%
  increase in the population in S phase: 28%
C2C12 cells [6]; C2C12, 24 h
  IC50: 154 µM
  IC80: 201 ± 8 µM
C2C12 cells [6]; C2C12, 48 h
  IC50: 108 ± 8 µM
  IC80: 182 ± 12 µM
C2C12 cells [6]; C2C12, 72 h
  IC50: 59 ± 1 µM
  IC80: 91 ± 7 µM
Wistar female rats [7]; 10 mg/kg single oral dose
  Myoglobiunuria: ++
  Ataxic Gait: 0/3
  Hypotonic Gait: 0/3
  Hipoactivity: 10 h
  Piloerection: 2 to 4 h
Wistar female rats [7]; 20 mg/kg single oral dose
  Myoglobiunuria: ++
  Ataxic Gait: 0/3
  Hypotonic Gait: 0/3
  Hipoactivity: 10 h
  Piloerection: 2 to 4 h
Wistar female rats [7]; 40 mg/kg single oral dose
  Hipoactivity: 24 h
  Piloerection: Until death
Wistar female rats [7]; 60 mg/kg single oral dose
  Ataxic Gait: 0/3
  Hypotonic Gait: 3/3
  Hipoactivity: 48 h
  Piloerection: Until death
Wistar female rats [7]; 60 mg/kg, after 48 h, disappeared after 72 h
  gait: ataxic gait
Wistar female rats [7]; 10 and 20 mg/kg, until 10 h of treatment
  signs observed at lower doses: depressed activity and some of they had brown color urine or myoglobinuria
Wistar female rats [7]; 40 and 60 mg/kg, until 4 h of treatment
  signs observed at higher doses: total loss of equilibrium, hypotonic gait and piloerection
Wistar female rats [7]; after 24 h of treatment, disappears at 48 and 72 h
  urine color: all animals had urine brown color but in absence of hematuria
Wistar female rats [7]; all groups, 10-60 mg/kg, up to 72 h
  evolution of body weight: normal
Wistar female rats [7]; rat, in vivo
  persistence of muscular weakness: 3 days
C2C12 cells [8]; PPD at IC50, 24 h
  early apoptosis: 34.7%
  late apoptosis: 18.8%
C2C12 cells [8]; PPD at IC80, 24 h
  early apoptosis: 20.1%
  late apoptosis: 23.9%
